# Patent publication US9981969B2, “Imidazole derivatives and methods of use thereof for improving the pharmacokinetics of a drug” (MERCK SHARP & DOHME CORP., priority 2013, dated 2018)
# Experiments:
# [1] = target: T1, CYP3A4 (Homo sapiens, UniProt P08684); assay: Cocktail assay for CYPs in human liver microsomes, midazolam 1′-hydroxylation (3A4); format: biochemical; settings: 2 μM midazolam, 10 min at 37° C.
# T1 construct: 0.1 mg/mL protein human liver microsomes (BD Gentest); tissue BD Gentest; host or cells: human liver microsomes
# Experimental: (§1) This assay was performed in a standard 96-well plate design. IC50 values were calculated from the percent inhibition observed for each test compound at 6 concentrations (for example, 0.0032, 0.016, 0.08, 0.4, 2 and 10 μM). The incubation substrate mix contains 10 μM phenacetin (1A2), 5 μM diclofenac (2C9), 30 μM mephenytoin (2C19), 5 μM dextromethorphan (2D6) and 2 μM midazolam (3A4), 0.1 mg/mL protein human liver microsomes (BD Gentest), 1 mM NAPDH, 3.3 mM MgCl2 and 100 mM potassium phosphate buffer (pH 7.4). The production of the metabolite of each probe substrate was determined after incubation for 10 min at 37° C. Quantitation of the metabolite peak area ratio against an internal standard (tolbutamide) was determined by LC/MS/MS analysis following acetonitrile treatment of the incubations.
# (§2) Samples were analyzed in the MRM mode with a SCIEX API-4000 mass spectrometer (Applied Biosystems, Foster City, Calif.), with a Shimadzu LC-20 AD pump (Shimadzu corporation, Kyoto, JP) and a CTC PAL autosampler (Agilent Technologies, Switzerland). A Phenomenex, Luna, 5 μm, 100A, 2.00×30 mm HPLC column was used for the separation. The mobile phases were: (A) 0.1% formic acid in water and (B) 0.1% formic acid in acetonitrile. The binary gradient was as follows. AutoSampler: CTC PAL
# (§3) The peak area ratio of the analyte to the internal standard was used to quantify the metabolite. The values of peak area ratios in the presence of test compound were compared to those of maximum or minimum controls and were expressed as % inhibition by interpolating between the maximum and minimum peak area ratios. Incubations with no inhibitor were defined as the maxima. The following equation was used to calculate the % inhibition: [1−[(X−Low control)/(High control−Low control)]]*100 For the IC50 calculation, SigmaPlot was used to plot the mean % inhibition versus the test compound concentrations and for non-linear regression analysis of the data. Depending on the range of data points defining the inhibition curve, the data may have been fit to the 4-parameter logistic equation.
# [2] = target: T2, human CYP11B1 (Homo sapiens, UniProt P15538); assay: IC50 vs CYP11B1 by measurement of cortisol synthesis in V79 cells; format: cell-based; settings: V79 cells expressing human CYP11B1, 1500 nM RSS, cortisol HTRF
# T2 construct: expressed in transfected cells
# T2 sequence (P15538 25-503): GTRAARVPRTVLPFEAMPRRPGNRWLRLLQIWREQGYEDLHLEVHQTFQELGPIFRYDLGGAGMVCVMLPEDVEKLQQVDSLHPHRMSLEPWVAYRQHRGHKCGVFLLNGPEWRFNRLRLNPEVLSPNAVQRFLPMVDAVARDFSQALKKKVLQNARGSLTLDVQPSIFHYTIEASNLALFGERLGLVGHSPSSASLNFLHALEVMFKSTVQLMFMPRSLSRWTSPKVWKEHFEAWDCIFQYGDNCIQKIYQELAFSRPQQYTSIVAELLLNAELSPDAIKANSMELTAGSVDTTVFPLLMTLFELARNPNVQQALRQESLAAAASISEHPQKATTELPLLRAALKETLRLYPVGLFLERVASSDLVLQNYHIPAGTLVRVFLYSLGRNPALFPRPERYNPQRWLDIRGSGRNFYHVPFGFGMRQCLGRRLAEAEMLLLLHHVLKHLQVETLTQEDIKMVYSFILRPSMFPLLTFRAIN
# Experimental: (§4) This assay was performed in a standard 384-well plate design using cultured V79 cells stably expressing human CYP11B1 or human CYP11B2. Test compounds at 10 concentrations (for example, 10000, 3333.3, 1111.1, 370.4, 123.5, 41.2, 13.7, 4.6, 1.5 and 0.5 nM) were added in 384-well plate after the cell-seeding procedure. The incubation substrate contains 1500 nM RSS for CYP11B1 assay/750 nM DOC for CYP11B2 assay. The Cortisol/Aldosterone production of cell culture supernatant was determined by Cortisol/Aldosterone HTRF kit after for about 15 hours incubation at RT (protect from light). IC50 (nM) values were calculated from the percent inhibition observed for each test compound at 10 concentrations.
# (§5) The assay plate was read using Envision (Perkin Elmer, Waltham, Mass.) at 665 nm and 590 nm (using Filter Barcode of 217#, 205#; Mirror Barcode of 446#).
# (§6) Data are analyzed using Assay Data Analyzer. All ratio data (665 nm/590 nm) are back calculated according to the standard curve, resulting in Cortisol/Aldosterone concentrations. IC50 (nM) values are reported as the Inflection Point (IP) of a four parameter fit of the titration data.
# (§7) The following equation was used to calculate the % inhibition: % Activity=100×{1−(Sample_back calculated Cortisol/Aldosterone concentration−LC_back calculated Cortisol/Aldosterone concentration)/(HC_back calculated Cortisol/Aldosterone concentration−LC_back calculated Cortisol/Aldosterone concentration)} Curve Fitting: Four Parameter Logistic: […]
# [3] = target: T3, CYP1A2 (Homo sapiens, UniProt P05177); assay: Cocktail assay for CYPs in human liver microsomes, phenacetin O-deethylation (1A2); format: biochemical; settings: 10 μM phenacetin, 10 min at 37° C.
# T3 construct: 0.1 mg/mL protein human liver microsomes (BD Gentest); tissue BD Gentest; host or cells: human liver microsomes
# T3 sequence (P05177 1-516): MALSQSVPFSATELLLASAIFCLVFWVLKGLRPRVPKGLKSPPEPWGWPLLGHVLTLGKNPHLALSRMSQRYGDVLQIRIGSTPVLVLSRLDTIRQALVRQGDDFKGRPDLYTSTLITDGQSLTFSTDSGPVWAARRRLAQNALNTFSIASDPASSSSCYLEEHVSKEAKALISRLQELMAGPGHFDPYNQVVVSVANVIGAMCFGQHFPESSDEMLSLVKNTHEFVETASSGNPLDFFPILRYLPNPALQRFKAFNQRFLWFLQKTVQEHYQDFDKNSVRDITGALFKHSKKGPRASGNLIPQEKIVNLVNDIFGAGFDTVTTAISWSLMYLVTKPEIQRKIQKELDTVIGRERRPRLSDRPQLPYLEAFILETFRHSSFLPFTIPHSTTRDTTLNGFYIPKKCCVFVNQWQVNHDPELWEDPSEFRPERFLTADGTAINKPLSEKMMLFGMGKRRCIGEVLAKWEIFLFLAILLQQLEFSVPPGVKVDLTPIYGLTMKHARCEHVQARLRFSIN
# Experimental: as §1, §2, §3
# [4] = target: T4, CYP2C9 (Homo sapiens, UniProt P11712); assay: Cocktail assay for CYPs in human liver microsomes, diclofenac 4′-hydroxylation (2C9); format: biochemical; settings: 5 μM diclofenac, 10 min at 37° C.
# T4 construct: 0.1 mg/mL protein human liver microsomes (BD Gentest); tissue BD Gentest; host or cells: human liver microsomes
# Experimental: as §1, §2, §3
# [5] = target: T5, CYP2D6 (Homo sapiens, UniProt P10635); assay: Cocktail assay for CYPs in human liver microsomes, dextromethorphan O-demethylation (2D6); format: biochemical; settings: 5 μM dextromethorphan, 10 min at 37° C.
# T5 construct: 0.1 mg/mL protein human liver microsomes (BD Gentest); tissue BD Gentest; host or cells: human liver microsomes
# Experimental: as §1, §2, §3
# [6] = target: T6, human CYP11B2 (Homo sapiens, UniProt P19099); assay: IC50 vs CYP11B2 by measurement of aldosterone synthesis in V79 cells; format: cell-based; settings: V79 cells expressing human CYP11B2, 750 nM DOC, aldosterone HTRF
# T6 construct: expressed in transfected cells
# T6 sequence (P19099 25-503): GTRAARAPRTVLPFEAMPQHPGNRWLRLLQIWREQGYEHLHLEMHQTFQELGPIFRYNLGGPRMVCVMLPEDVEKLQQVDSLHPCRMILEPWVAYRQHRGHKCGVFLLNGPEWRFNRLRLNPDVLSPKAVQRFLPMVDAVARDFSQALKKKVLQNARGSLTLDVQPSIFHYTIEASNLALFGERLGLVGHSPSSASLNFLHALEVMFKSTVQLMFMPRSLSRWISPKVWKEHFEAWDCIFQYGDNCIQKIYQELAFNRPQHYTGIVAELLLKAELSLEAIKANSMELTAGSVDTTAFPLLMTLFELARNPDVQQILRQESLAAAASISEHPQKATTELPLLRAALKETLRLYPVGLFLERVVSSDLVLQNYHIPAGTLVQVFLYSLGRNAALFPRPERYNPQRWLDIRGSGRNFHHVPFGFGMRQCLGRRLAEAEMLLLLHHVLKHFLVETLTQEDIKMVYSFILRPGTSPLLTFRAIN
# Experimental: as §4, §5, §6, §7
# [7] = target: T7, CYP2C19 (Homo sapiens, UniProt P33261); assay: Cocktail assay for CYPs in human liver microsomes, mephenytoin 4′-hydroxylation (2C19); format: biochemical; settings: 30 μM mephenytoin, 10 min at 37° C.
# T7 construct: 0.1 mg/mL protein human liver microsomes (BD Gentest); tissue BD Gentest; host or cells: human liver microsomes
# Experimental: as §1, §2, §3
# T7 sequence (P33261 whole entry): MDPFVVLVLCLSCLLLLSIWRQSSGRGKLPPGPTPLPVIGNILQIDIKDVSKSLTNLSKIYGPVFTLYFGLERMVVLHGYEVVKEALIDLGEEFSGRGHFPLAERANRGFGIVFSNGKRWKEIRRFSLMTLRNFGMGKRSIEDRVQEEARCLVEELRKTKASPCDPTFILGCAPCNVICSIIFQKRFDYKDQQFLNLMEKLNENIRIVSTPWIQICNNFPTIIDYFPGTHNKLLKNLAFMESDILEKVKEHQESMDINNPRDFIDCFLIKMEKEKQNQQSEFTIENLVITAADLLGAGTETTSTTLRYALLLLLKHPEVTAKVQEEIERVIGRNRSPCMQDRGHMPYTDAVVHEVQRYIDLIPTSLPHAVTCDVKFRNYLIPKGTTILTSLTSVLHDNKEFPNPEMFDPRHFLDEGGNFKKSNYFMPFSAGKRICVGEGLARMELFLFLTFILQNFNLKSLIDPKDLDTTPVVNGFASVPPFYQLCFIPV
# T1 sequence (P08684 whole entry): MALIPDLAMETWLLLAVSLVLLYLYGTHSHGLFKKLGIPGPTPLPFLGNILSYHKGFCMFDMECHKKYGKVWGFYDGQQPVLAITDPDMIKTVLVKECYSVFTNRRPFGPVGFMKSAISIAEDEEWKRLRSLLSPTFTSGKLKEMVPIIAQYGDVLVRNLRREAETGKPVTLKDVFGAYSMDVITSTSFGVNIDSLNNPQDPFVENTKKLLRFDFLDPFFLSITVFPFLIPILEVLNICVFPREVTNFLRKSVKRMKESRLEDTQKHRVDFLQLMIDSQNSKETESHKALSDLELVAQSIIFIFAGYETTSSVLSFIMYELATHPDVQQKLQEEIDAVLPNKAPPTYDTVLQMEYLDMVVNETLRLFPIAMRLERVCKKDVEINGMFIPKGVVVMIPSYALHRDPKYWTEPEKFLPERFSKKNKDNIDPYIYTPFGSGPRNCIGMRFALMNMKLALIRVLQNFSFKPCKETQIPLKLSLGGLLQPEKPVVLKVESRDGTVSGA
# T5 sequence (P10635 whole entry): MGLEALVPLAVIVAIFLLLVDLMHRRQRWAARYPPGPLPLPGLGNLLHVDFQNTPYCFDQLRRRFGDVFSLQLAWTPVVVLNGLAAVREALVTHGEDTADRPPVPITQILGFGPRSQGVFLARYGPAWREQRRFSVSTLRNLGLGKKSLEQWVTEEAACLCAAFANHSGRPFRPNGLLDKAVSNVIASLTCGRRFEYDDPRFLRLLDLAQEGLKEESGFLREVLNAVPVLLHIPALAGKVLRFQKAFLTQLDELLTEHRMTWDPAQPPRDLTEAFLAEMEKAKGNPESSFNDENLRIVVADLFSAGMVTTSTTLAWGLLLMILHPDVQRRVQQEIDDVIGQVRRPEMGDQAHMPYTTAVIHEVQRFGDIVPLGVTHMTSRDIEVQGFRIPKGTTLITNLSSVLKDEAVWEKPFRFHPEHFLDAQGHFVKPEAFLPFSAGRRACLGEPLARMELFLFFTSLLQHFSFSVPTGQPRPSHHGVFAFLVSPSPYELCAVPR
# T4 sequence (P11712 whole entry): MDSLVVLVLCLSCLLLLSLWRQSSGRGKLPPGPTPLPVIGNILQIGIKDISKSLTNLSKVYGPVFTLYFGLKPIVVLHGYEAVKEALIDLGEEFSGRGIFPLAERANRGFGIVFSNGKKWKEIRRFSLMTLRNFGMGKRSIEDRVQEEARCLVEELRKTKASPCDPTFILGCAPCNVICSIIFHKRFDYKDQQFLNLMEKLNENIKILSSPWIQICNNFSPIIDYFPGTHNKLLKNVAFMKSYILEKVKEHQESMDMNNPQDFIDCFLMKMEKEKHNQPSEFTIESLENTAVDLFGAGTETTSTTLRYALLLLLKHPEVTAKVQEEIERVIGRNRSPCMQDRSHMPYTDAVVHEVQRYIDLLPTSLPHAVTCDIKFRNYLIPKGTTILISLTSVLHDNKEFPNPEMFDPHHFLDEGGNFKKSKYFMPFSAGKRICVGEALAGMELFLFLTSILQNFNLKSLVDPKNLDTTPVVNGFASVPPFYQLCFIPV
SMILES,IC50 [1] [µM],IC50 [2] [µM],IC50 [3] [µM],IC50 [4] [µM],IC50 [5] [µM],IC50 [6] [µM],IC50 [7] [µM]
C[C@@H](c1ccccc1-c1ccc(F)cc1)n1cncc1C(=O)N1CCC(N2CC[C@@H](O)[C@H](F)C2)CC1 [Compound 14],0.0061,22,> 10,> 10,> 10,> 50,> 10
C[C@@H](c1ccccc1-c1ccc(F)cc1)n1cncc1C(=O)N1CC[C@H]2NCCO[C@@H]2C1 [Compound 4],0.0058,13.9,> 10,> 10,4.87,> 50,> 10
C[C@@H](c1ccccc1-c1ccc(F)cc1)n1cncc1C(=O)N1CCC(N2CCn3c(nnc3C(F)(F)F)C2)CC1 [Compound 26],0.0064,14.6,> 10,> 10,≥ 10,> 50,6.29
CO[C@H]1CN(C2CCN(C(=O)c3cncn3[C@@H](C)c3ccccc3-c3ccc(F)cc3)CC2)CC[C@@H]1O [Compound 10],0.005,> 50,> 10,> 10,5.91,> 50,> 10
C[C@@H]1CN(C2CCN(C(=O)c3cncn3[C@@H](C)c3ccccc3-c3ccc(F)cc3)CC2)CC[C@H]1O [Compound 18],0.0097,> 50,> 10,> 10,> 10,> 50,> 10
C[C@@H](c1ccccc1-c1ccc(F)cc1)n1cncc1C(=O)N1CCC(N2CCCC(C)(O)C2)CC1 (stereo partly drawn) [Compound 9],0.0066,24.9,> 10,> 10,6.63,> 50,> 10
C[C@@H](c1ccccc1-c1ccc(F)cc1F)n1cncc1C(=O)N1CCC2NCCO[C@@H]2C1 (stereo partly drawn) [Compound 38],0.0089,25.3,> 10,> 10,> 10,> 50,> 10
C[C@@H](c1ccccc1-c1ccc(F)cc1)n1cncc1C(=O)N1CCn2c(nnc2C2CC2)C1 [Compound 5],0.0061,42.6,> 10,> 10,≥ 10,> 50,7.57
CCOc1ncccc1-c1ccccc1[C@H](C)n1cncc1C(=O)N1CCC2NCCO[C@@H]2C1 (stereo partly drawn) [Compound 40],0.0095,33.3,> 10,> 10,> 10,25.9,> 10
C[C@@H](c1ccccc1-c1ccc(F)cc1)n1cncc1C(=O)N1CC[C@@H](N2CCNC(=O)C2)[C@@H](F)C1 [Compound 30],0.0058,> 50,> 10,> 10,> 10,41.5,> 10
C[C@@H](c1ccccc1C1CCCC1)n1cncc1C(=O)N1CCC2NCCO[C@@H]2C1 (stereo partly drawn) [Compound 48],0.0055,11.3,> 10,> 10,> 10,15.5,> 10
C[C@@H](c1ccccc1-c1cc(F)cc(F)c1)n1cncc1C(=O)N1CCC2NCCO[C@@H]2C1 (stereo partly drawn) [Compound 37],0.0097,19.7,> 10,> 10,> 10,> 50,> 10
